Measured values published in US20140274927A1, “TNF-Related Biomarkers For Assessing Cancer Cell Response To Treatment With Taxane And/Or Anthracycline Drugs” (priority 2013, published 2014).
Read-outs that look alike come from different tables or passages of the source.

Key:
[1] = system: monocyte TNF levels; settings: gastric cancer patients, chemotherapy; cited from earlier work
[2] = system: A2780 ovarian tumour cells; settings: cited from earlier work
[3] = system: MCF-7CC cells; assay: Clonogenic assay
Description: (§1) Cellular sensitivity to TNFα or docetaxel was assessed using a clonogenic assay as described previously. Docetaxel resistance factors for the cell lines were determined by dividing the IC50 for docetaxel in the taxane-resistant cell lines by the IC50 for MCF-7CC cells. […] (SN-50, 7 μg/ml). A control peptide at the same concentration (SN-50M) was used in the latter experiments to assess the specificity of NF-κB inhibition.

[4] = system: MCF-7TXT cells; assay: Clonogenic assay
Description: (§2) MCF-7 cells from the American Tissue Culture Collection (catalog number HTB-22) were cultured or selected for survival in increasing doses of docetaxel or paclitaxel as previously described [17;18]. The initial concentrations of docetaxel and paclitaxel used to begin selection (dose 1) were 0.51 and 0.56 nM, respectively. Cells selected to docetaxel concentrations of 1.11 nM (dose 8, MCF-7TXT8), 3.33 nM (dose 9, MCF-7TXT9), 5.00 nM (dose 10, MCF-7TXT10), 15 nM (dose 11, MCF-7TXT11), and 45 nM (dose 12, MCF-7TXT12) were used in this study. Numbers in subscripts of cell line names refer to the maximum docetaxel dose level to which the cells were exposed. The paclitaxel resistant cell line used in this study was selected in an identical manner to a final concentration of 6.64 nM paclitaxel (MCF-7TAX-1 cells; hyphenated number indicates the first cell line selection, not drug dose). […] A2780 ovarian carcinoma cells from the European Collection of Cell Cultures were also selected for resistance to docetaxel in an identical manner (A2780DXL cells), including the creation of “co-cultured control” A2780CC cells.
as §1

[5] = system: MCF-7TAX-1 cells; assay: sTNFα in cell culture medium by ELISA; type: cell-based, human; settings: presence or absence of docetaxel
[6] = system: A2780DXL cells; assay: Clonogenic assay; type: cell-based, human; settings: A2780DXL cells at maximally tolerated dose (405 nM)
Description: as §2, §1

[7] = breast cancer patients following docetaxel infusion; cited from earlier work
[8] = system: MCF-7TXT cells; assay: sTNFα in cell culture medium by ELISA; type: cell-based, human; settings: for sTNFα levels: 50 nM docetaxel
Description: (§3) Concentrated proteins from the medium of two million MCF-7CC, MCF-7TXT or A2780 cells (grown in culture in the absence or presence of various concentrations of paclitaxel or docetaxel) were assessed for levels of sTNFα or sTNFR1 using ELISA kits from R&D Systems™, following the manufacturer's instructions.

[9] = system: A2780 cells; assay: sTNFα in cell culture medium by ELISA; type: cell-based, human
Description: as §3

[10] = system: MCF-7CC cells; assay: sTNFα in cell culture medium by ELISA; type: cell-based, human
Description: as §3

[11] = system: murine macrophages; settings: cited from earlier work
[12] = system: serum levels of proinflammatory cytokines, including TNFα; settings: castration-resistant prostate cancer patients, two days after administration; cited from earlier work
[13] = system: MCF-7TAX-1 cells; settings: cited from earlier work
[14] = system: NF-κB p65 and p50 subunits; assay: NF-κB activity in nuclear extracts (TransAM NF-κB Family ELISA); type: cell-based, human; settings: MCF-7CC and MCF-7TXT cells, 50 nM docetaxel 24 hours; except selection doses >15 nM (dose 11 and 12)
Description: MCF-7CC and MCF-7TXT cells were cultured in the presence or absence of 50 nM docetaxel for 24 hours. The activity of the NF-κB p65 and p50 subunits in 10 μg of nuclear extracts was assessed as outlined in the TransAM™ NF-κB Family ELISA kit (Active Motif™, Carlsbad, Calif.). Readings at 450 nm were normalized to the sum of all readings on the plate in order to compare across triplicate experiments.

[15] = system: C2C12 myotubes; settings: cited from earlier work
[16] = system: MCF-7TAX-1 cells; assay: Clonogenic assay; type: cell-based, human
Description: as §2, §1

[17] = system: MCF-7TXT cells; settings: cited from earlier work

For `O=c1[nH]cc(F)c(=O)[nH]1` [5FU], the “monocyte TNF levels” value [1] is given as “no effect”.

In the case of `CC[C@@]1(O)C(=O)OCc2c1cc1n(c2=O)Cc2cc3c(CN(C)C)c(O)ccc3nc2-1` [Topotecan], the “TNF alpha production / levels” value [2] is listed as “no effect on TNF alpha levels”.

For `N.N.[Cl][Pt][Cl]` [cisplatin], the “TNF alpha production / levels” value [2] is listed as “increased TNF alpha production”.

With `C[C@@H]1C[C@@H]([C@H](O)CC2CC(=O)NC(=O)C2)C(=O)[C@@H](C)C1` [cycloheximide] the “effect on TNFα cytotoxicity” value ([3]; cycloheximide 5 μg/mL with 10 ng/mL TNFα, 24 hours) was “only a small additional effect” and the “effect on TNFα cytotoxicity” value ([4]; MCF-7TXT10 cells, cycloheximide 5 μg/mL with 10 ng/mL TNFα, 24 hours) was “restored TNFα's ability to be cytotoxic”.

For `CC(=O)O[C@@]12CO[C@@H]1C[C@H](O)[C@@]1(C)C(=O)[C@H](O)C3=C(C)[C@@H](OC(=O)[C@H](O)[C@@H](NC(=O)OC(C)(C)C)c4ccccc4)C[C@@](O)([C@@H](OC(=O)c4ccccc4)[C@H]21)C3(C)C` [docetaxel], the “sTNFα levels versus MCF-7CC” value [5] is listed as “No differences”, the resistance to docetaxel [6] is listed as roughly 4000 fold and the “plasma levels of docetaxel” value [7] is listed as 10 to 75 nM. The sTNFα secretion ([8]; MCF-7TXT8 cells, 50 nM docetaxel versus untreated) was “no significant difference”, the “further increase of sTNFα production” value ([8]; MCF-7TXT9 cells, 50 nM docetaxel versus untreated) was 1.62 fold and the “further increase of sTNFα production” value ([8]; MCF-7TXT10 cells, 50 nM docetaxel versus untreated) was 1.27 fold. For the same compound, the sTNFα levels ([8]; MCF-7TXT11 cells) was “returned to basal levels”, the sTNFα levels ([8]; MCF-7TXT12 cells) was “returned to basal levels” and the sTNFα levels secreted ([9]; A2780CC cells, 0.1 to 1 nM docetaxel, versus untreated) was “not significantly changed”. The “TNFα produced in response to docetaxel” value ([9]; A2780 cells, compared with MCF-7CC cells, 48 hours) was “even greater amounts”, the “TNFα production and sTNFα release” value ([9]; ovarian tumor cells, docetaxel 3 to 45 nM) was “can stimulate TNFα production and sTNFα release” and the “sTNFα levels in media” value ([10]; MCF-7CC cells, 3 nM docetaxel, 48 hours) was “significantly elevated”. For the same compound, the sTNFα secretion ([10]; MCF-7CC cells, 50 nM docetaxel versus untreated) was “no significant difference”, the sTNFα levels secreted ([10]; MCF-7CC cells, 0.1 to 1 nM docetaxel, versus untreated) was “not significantly changed” and the “TNFα production and sTNFα release” value ([10]; breast tumor cells, docetaxel 3 to 45 nM) was “can stimulate TNFα production and sTNFα release”. The TNFα expression ([11]; same study) was “no effect”, the docetaxel sensitivity ([4]; MCF-7TXT8 cells (selected to 1.1 nM docetaxel) versus MCF-7CC) was “did not affect docetaxel sensitivity” and the “resistance to docetaxel (IC50 ratio to MCF-7CC)” value ([4]; MCF-7TXT9 cells (selected to 3.33 nM docetaxel)) was 11.4 fold. The docetaxel resistance factor ([4]; MCF-7TXT10 cells (selected to 5 nM docetaxel)) was 16.6, the docetaxel resistance factor ([4]; MCF-7TXT11 cells (selected to 15 nM docetaxel)) was 32.8 and the docetaxel resistance factor ([4]; MCF-7TXT12 cells (selected to 45 nM docetaxel)) was 184. For the same compound, the “serum levels of proinflammatory cytokines, including TNFα” value [12] was “increased”, the “cross resistance to docetaxel” value [13] was 46 fold and the “p65 and p50 subunit binding to the NF-κB sequence” value [14] was “even higher levels”.

For `COc1cccc2c1C(=O)c1c(O)c3c(c(O)c1C2=O)C[C@@](O)(C(=O)CO)C[C@@H]3O[C@H]1C[C@H](N)[C@H](O)[C@H](C)O1` [doxorubicin], the “TNF alpha production / levels” value [2] is given as “increased TNF alpha production”, the “monocyte TNF levels” value [1] is given as “no effect” and the TNFα expression ([9]; A2780 ovarian tumour cells, FIG. 1E) is given as “induces TNFα expression”. For the same compound, the TNFα expression ([10]; MCF-7 breast tumour cells, FIG. 1D) was “induces TNFα expression”.

In the case of `CO[C@@]12[C@H](COC(N)=O)C3=C(C(=O)C(C)=C(N)C3=O)N1C[C@@H]1N[C@@H]12` [mitomycin C], the “monocyte TNF levels” value [1] is given as “no effect”.

For `CC(=O)O[C@H]1C(=O)[C@@]2(C)[C@H]([C@H](OC(=O)c3ccccc3)[C@]3(O)C[C@H](OC(=O)[C@H](O)[C@@H](NC(=O)c4ccccc4)c4ccccc4)C(C)=C1C3(C)C)[C@]1(OC(C)=O)CO[C@@H]1C[C@@H]2O` [paclitaxel], the TNFα production ([15]; 4 hours following treatment, paclitaxel 10 nM to 10 μM) is listed as “did not induce increased TNFα production”, the NF-κB activity [15] is listed as “induced NF-κB activity” and the paclitaxel resistance factor ([16]; maximally tolerated dose of paclitaxel) is listed as 42. The sTNFα production ([9]; A2780 cells, paclitaxel at concentrations 15 nM, compared with docetaxel) was “even higher levels”, the sTNFα release ([9]; ovarian tumor cells, paclitaxel 5 and 15 nM) was “dramatically increase sTNFα release” and the sTNFα release ([11]; levels unachievable in patients) was “increase sTNFα release”. For the same compound, the “cross-resistance to paclitaxel, resistance factor” value ([17]; selection dose 11) was 148 and the “cross-resistance to paclitaxel, resistance factor” value ([17]; selection dose 12) was 251.

For `CC[C@]1(O)C[C@@H]2CN(CCc3c([nH]c4ccccc34)[C@@](C(=O)OC)(c3cc4c(cc3OC)N(C)[C@H]3[C@@](O)(C(=O)OC)[C@H](OC(C)=O)[C@]5(CC)C=CCN6CC[C@]43[C@@H]65)C2)C1` [vinblastine], the “TNF alpha production / levels” value [2] is listed as “increased TNF alpha production”.

For TNFα, the colony formation ([3]; TNFα 50 or 100 ng/mL) is listed as “very strongly reduced”, the NF-κB activity [15] is listed as “induced NF-κB activity” and the colony formation ([16]; TNFα 50 or 100 ng/ml, relative to MCF-7TXT10) is listed as “strong reductions in colony formation”. The “reduction of colony formation” value ([4]; MCF-7TXT8 cells, TNFα 10 ng/ml) was 66.6±1.7%, the “colony formation in absence or presence of TNFα” value ([4]; MCF-7TXT10 cells, TNFα 10 ng/mL) was “significant resistance to TNFα” and the “reductions in colony formation” value ([4]; MCF-7TXT10 cells, TNFα 50 ng/mL or 100 ng/mL, compared with MCF-7CC) was “much smaller”. For the same compound, the colony formation ([4]; MCF-7TXT12 cells, TNFα 10 ng/mL) was “increased colony formation”.
